Test results as given in ChEMBL document CHEMBL1201862, “PubChem BioAssay data set” (2004).
Calls of active or inactive are those of the source.

Assays:
[1] = LGR2 antagonists, dose response, cell-based, HEK293, CRE-luciferase reporter, cherry pick, set 2 (AID 743343); format: functional;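 note: transfected cells were stimulated with diluted bursicon conditioned medium after compound addition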
[2] = inhibitors of SNCA 5'UTR-driven translation, confirmation, luminescence, H4 neuroglioblastoma cells, dose confirmation (AID 2454); format: functional, cell-based;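 note: H4 neuroglioblastoma cells carrying an alpha-synuclein 5'UTR luciferase reporter; potency for inhibition of the luciferase signal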
[3] = biological target: Delta-type opioid receptor (Homo sapiens, UniProt P41143); assay: Counterscreen for agonists of heterodimerization of the mu 1 (OPRM1) and delta 1 (OPRD1) opioid receptors: Luminescence-based cell-based high throughput dose response assay to identify agonists of OPRD1 homodimerization. [Related pubchem assays (depositor defined):AID504326, AID504355, AID504692, AID504904, AID504905]; format: functional
Delta-type opioid receptor, sequence (P41143 whole entry): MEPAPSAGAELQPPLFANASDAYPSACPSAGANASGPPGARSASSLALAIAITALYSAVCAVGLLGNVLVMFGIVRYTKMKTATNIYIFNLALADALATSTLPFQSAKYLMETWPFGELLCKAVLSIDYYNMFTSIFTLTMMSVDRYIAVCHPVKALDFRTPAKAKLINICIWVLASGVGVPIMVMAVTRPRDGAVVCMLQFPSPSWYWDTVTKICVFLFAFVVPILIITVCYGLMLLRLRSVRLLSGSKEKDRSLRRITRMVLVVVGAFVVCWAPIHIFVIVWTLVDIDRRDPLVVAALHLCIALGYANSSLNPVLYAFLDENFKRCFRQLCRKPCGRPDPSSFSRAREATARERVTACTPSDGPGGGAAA

[4] = biological target: 5-hydroxytryptamine receptor 5A (Homo sapiens, UniProt P47898); assay: Counterscreen for agonists of OPRM1-OPRD1 heterodimerization: luminescence-based cell-based high throughput dose response assay to identify agonists of 5-hydroxytryptamine (serotonin) 5A receptor (HTR5A). [Related pubchem assays (depositor defined):AID504326, AID504355, AID504692, AID504904, AID504905]; format: functional
5-hydroxytryptamine receptor 5A, sequence (P47898 whole entry): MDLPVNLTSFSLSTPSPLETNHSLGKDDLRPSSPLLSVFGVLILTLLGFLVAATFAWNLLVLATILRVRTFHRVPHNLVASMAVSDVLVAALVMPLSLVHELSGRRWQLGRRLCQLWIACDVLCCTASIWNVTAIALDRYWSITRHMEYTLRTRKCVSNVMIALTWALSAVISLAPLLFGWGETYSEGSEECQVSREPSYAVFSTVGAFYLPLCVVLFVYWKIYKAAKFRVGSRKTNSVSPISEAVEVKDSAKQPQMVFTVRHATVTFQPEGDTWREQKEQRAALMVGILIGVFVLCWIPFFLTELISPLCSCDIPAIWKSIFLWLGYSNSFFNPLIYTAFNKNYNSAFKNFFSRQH

[5] = inhibitors of firefly luciferase expression or activity, dose response, H4 neuroglioma cells, luminescence (AID 1990); format: functional, cell-based
[6] = inhibitors of SNCA 5'UTR-driven reporter translation, confirmation, H4 neuroglioma cells, luminescence (AID 1988); format: functional, cell-based
[7] = A549 cell cytotoxicity, dose response, cytotoxicity control, plate reader, cherry-pick, antagonist series (AID 743412); format: functional, cell-based
[8] = biological target: T1, Microphthalmia-associated transcription factor (Homo sapiens, UniProt O75030); assay: TRPM1 promoter luciferase signal decrease, dose response, MITF inhibitor project, cell-based, SK-MEL-5, cherry-picked, set 3 (AID 493073); format: functional
T1 sequence (O75030 whole entry): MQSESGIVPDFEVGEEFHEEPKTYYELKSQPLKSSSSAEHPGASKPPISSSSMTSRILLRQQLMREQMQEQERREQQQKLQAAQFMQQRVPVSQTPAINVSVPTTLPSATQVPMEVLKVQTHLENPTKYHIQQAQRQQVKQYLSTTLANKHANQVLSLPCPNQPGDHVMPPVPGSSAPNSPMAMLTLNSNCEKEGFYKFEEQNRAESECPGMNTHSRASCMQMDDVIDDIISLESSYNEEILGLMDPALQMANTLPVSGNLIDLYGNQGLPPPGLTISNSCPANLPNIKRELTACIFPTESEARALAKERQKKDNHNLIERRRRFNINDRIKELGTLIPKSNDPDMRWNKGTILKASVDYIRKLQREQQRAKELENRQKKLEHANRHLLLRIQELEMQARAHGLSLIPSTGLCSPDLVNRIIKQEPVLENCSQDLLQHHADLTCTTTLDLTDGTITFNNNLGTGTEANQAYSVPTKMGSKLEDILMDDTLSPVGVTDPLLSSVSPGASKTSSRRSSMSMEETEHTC

[9] = HepG2 cell cytotoxicity, dose response, cytotoxicity control, plate reader, cherry-pick, antagonist series (AID 743416); format: functional, cell-based
[10] = Luminescence Cell-Based Dose Response HTS to Identify Inhibitors of 5'UTR Stem-Loop Driven Prion Protein mRNA Translation in H4 Neuroglioblastoma Cells. [Related pubchem assays: 1827 (Project Summary), 1813 (Primary HTS)]; format: functional
[11] = HEK293 cell cytotoxicity, dose response, cytotoxicity control, plate reader, cherry-picked samples (AID 743446); format: functional, cell-based
Mu-type opioid receptor = Mu-type opioid receptor (Homo sapiens, UniProt P35372); assay: Counterscreen for agonists of heterodimerization of the mu 1 (OPRM1) and delta 1 (OPRD1) opioid receptors: Luminescence-based cell-based high throughput dose response assay to identify agonists of OPRM1 homodimerization.; format: functional;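 note: U2OS cells expressing OPRM1 and beta-arrestin as split beta-galactosidase partners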
Mu-type opioid receptor, sequence (P35372 whole entry): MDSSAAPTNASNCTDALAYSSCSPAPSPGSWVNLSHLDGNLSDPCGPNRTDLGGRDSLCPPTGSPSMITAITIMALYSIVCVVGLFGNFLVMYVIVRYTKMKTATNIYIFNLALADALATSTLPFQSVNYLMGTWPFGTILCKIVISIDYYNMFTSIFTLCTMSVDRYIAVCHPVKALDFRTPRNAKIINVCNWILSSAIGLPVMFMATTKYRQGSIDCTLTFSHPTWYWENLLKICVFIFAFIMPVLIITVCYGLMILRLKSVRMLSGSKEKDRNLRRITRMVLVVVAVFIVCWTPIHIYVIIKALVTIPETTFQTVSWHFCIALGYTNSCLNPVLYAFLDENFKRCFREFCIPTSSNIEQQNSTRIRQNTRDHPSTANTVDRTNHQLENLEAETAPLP

[12] = MC4R antagonists, dose response, counter-screen for LGR2 antagonist project, cell-based, plate reader, cherry pick (AID 743444); format: functional;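 note: transfected HEK 293 cells stimulated with alpha-MSH peptide; potency of inhibitors of the alpha-MSH evoked signal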
cells = format: functional, cell-based
[13] = luciferase reporter signal reduction – luminescence, H4-C neuroglioblastoma cells, dose response (AID 2458); format: functional, cell-based;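 note: H4 neuroglioblastoma cells stably carrying a luciferase reporter gene fusion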
H4 = assay: Luminescence Cell-Based Dose Response HTS to Identify Activators of 5'UTR Stem-Loop Driven Prion Protein mRNA Translation in H4 Neuroglioblastoma Cells. [Related pubchem assays: 1829 (Project Summary), 1814 (Primary HTS)]; format: functional; details: Homo sapiens
HEK293 = assay: cells; format: functional, cell-based; details: Homo sapiens
[14] = Luminescence Cell-Based Dose Response HTS to Identify Activators of Luciferase Translation or Activity in H4 […] Cells. [Related pubchem assays: 1829 (Project Summary), 1814 (Primary HTS)]; format: functional
[15] = biological target: T2, Nuclear receptor subfamily 0 group B member 1 (Homo sapiens, UniProt P51843); assay: Luminescence-based cell-based high throughput dose response assay for inhibitors of the orphan nuclear receptor subfamily 0, group B, member 1 (DAX1; NR0B1). [Related pubchem assays (depositor defined):AID504766, AID504790]; format: functional
T2 sequence (P51843 whole entry): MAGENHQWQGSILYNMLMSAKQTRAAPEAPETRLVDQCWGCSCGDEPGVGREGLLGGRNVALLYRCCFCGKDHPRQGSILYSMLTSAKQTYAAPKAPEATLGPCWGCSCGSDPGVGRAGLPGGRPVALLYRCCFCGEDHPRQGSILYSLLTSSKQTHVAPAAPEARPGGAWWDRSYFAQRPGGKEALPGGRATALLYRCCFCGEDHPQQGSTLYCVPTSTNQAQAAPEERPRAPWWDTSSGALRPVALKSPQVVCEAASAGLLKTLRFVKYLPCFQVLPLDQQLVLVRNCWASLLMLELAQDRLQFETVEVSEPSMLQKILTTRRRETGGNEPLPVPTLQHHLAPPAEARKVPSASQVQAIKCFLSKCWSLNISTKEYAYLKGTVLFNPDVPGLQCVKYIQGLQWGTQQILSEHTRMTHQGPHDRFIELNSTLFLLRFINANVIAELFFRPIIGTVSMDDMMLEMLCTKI

Vero [16] = assay: cells; format: functional; details: Chlorocebus sabaeus
Beta-arrestin-1 = Beta-arrestin-1 (Homo sapiens, UniProt P49407); assay: inhibitors of arrestin peptide binding to AP2, dose response, biochemical, cherry pick 1, beta2-adaptin appendage, flow cytometry (AID 588783); format: functional
Beta-arrestin-1, sequence (P49407 whole entry): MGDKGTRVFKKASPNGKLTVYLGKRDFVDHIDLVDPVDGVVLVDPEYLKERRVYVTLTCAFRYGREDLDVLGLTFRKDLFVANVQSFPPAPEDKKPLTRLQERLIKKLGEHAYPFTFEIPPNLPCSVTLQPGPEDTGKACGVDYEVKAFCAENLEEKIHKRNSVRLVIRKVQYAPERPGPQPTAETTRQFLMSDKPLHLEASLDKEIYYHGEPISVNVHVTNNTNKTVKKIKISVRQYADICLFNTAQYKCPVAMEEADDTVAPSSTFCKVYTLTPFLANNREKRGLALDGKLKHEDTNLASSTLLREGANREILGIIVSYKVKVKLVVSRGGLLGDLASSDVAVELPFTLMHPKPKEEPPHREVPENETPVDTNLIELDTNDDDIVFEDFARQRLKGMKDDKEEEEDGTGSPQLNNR

Genome polyprotein = Genome polyprotein (dengue virus type 2, UniProt P29990); assay: Dengue-2 NS5 methyltransferase inhibitors, primary screen, biochemical, confirmation dose response (AID 588689); format: functional
Genome polyprotein, sequence (P29990 2492-3391 limits assumed): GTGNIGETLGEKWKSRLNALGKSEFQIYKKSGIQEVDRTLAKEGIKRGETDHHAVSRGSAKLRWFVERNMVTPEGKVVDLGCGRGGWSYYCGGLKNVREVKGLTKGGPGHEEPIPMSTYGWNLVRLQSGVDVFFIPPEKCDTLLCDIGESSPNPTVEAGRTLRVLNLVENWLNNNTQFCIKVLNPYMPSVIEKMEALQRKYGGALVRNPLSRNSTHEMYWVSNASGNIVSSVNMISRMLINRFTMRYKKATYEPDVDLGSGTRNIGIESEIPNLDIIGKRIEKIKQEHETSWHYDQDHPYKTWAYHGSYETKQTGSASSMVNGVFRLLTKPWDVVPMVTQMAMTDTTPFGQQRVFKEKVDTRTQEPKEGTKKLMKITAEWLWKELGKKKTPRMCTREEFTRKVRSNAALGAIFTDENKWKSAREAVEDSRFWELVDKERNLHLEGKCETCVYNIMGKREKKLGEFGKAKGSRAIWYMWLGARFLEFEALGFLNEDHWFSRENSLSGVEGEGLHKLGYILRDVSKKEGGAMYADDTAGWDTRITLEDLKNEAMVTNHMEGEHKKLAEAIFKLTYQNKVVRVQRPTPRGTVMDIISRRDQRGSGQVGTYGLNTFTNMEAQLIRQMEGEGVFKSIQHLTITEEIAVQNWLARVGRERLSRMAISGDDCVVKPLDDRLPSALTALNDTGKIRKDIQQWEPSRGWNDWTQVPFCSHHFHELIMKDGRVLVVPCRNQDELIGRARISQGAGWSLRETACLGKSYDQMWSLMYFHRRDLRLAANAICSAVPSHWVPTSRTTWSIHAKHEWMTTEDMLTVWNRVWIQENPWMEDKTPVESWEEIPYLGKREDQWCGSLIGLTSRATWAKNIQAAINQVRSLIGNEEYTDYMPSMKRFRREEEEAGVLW

Vero [17] = assay: Vero cell cytotoxicity, cytotoxicity control for flavivirus capping enzyme inhibitors (AID 588742); format: functional; details: Chlorocebus sabaeus
[18] = biological target: Glucose-6-phosphate 1-dehydrogenase (Homo sapiens, UniProt P11413); assay: human G6PD enzyme inhibitors, dose response, selectivity assay for P. falciparum G6PD inhibitor project, biochemical, fluorescence (AID 504792); format: functional
Glucose-6-phosphate 1-dehydrogenase, sequence (P11413 whole entry): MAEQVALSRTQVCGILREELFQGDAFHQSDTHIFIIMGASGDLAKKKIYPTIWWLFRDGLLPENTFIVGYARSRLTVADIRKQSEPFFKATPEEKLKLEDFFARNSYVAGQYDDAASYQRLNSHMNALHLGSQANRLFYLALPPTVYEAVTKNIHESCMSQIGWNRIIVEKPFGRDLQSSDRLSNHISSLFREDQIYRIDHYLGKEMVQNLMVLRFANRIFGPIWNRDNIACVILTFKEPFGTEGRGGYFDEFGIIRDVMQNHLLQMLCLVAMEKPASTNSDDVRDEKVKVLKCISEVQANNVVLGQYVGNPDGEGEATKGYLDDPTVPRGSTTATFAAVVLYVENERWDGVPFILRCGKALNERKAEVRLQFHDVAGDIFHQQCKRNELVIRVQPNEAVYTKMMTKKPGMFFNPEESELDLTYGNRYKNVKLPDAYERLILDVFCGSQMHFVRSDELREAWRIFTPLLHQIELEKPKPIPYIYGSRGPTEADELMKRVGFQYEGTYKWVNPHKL

[19] = biological target: Heat shock protein HSP 90-alpha (Homo sapiens, UniProt P07900); format: functional, organism-based
BJ [20] = assay: cells; format: functional, cell-based; details: Homo sapiens
BJ [21] = assay: cytotoxicity toward BJ-TERT fibroblasts, dose response, cell-based, RAS-independent, luminescence (AID 1933); format: functional; details: Homo sapiens
BJ [22] = assay: cytotoxicity toward Ras-transformed BJeLR fibroblasts, dose response, cell-based, alamar blue fluorescence, cherrypicked samples (AID 2631); format: functional; details: Homo sapiens;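 note: confirmatory dose-response assay in RAS-dependent BJ fibroblasts engineered with TERT, LT and ST, with cytotoxicity read by fluorescence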
BJ [23] = assay: cytotoxicity toward BJ-TERT-LT-ST fibroblasts, dose response, cell-based, RAS-independent, luminescence (AID 1935); format: functional; details: Homo sapiens;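 note: BJ fibroblasts immortalized with TERT plus LT and ST oncogenes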
[24] = cytotoxicity toward DRD oncogenic fibroblasts, dose response, cell-based, non-viral oncogenic, luminescence (AID 1934); format: functional; details: Homo sapiens

CC(=O)CSc1ccc(-c2nc3cc(C)c(C)cc3[nH]2)cn1
AC50 [1]: 0.82 µM (active)
EC50 [2]: 1 µM (active)
EC50 [3]: > 92.5 µM (inactive)
EC50 [4]: > 92.5 µM (inactive)
EC50 [5]: 0.113 µM (active)
EC50 [6]: < 0.1 µM (active)
AC50 [7]: > 52 µM (inactive)
AC50 [8]: 3.67 µM (active)
AC50 [9]: > 52 µM (inactive)
EC50 [10]: 12.8 µM (active)
AC50 [11]: 34.7 µM (active)
EC50 (Mu-type opioid receptor): 44.8 µM (inactive)
AC50 [12]: 1.11 µM (active)
EC50 (cells): > 12 µM (inconclusive)
EC50 [13]: 0.837 µM (active)

Clc1ccc(/C=N/Nc2ncnc3ccccc23)cc1Cl
EC50 (H4): 7.13 µM (active)
IC50 (HEK293): > 67.5 µM (inactive)
EC50 [14]: 0.181 µM (active)
IC50 [15]: > 67.5 µM (inactive)

Cn1c2ccccc2c2ccc3c(c21)C(=O)C=CC3=O
CC50 (Vero [16]): 12.6 µM (active)
IC50 (Beta-arrestin-1): 4.59 µM (active)
IC50 (Genome polyprotein): 15.8 µM (active)
CC50 (Vero [17]): 29.2 µM (active)
IC50 [18]: > 80 µM (inactive)
AC50 [19]: 8.99 µM (active)

Cc1ccnc(NC(=O)c2ccccc2NC(=O)c2ccc(Cl)cc2Cl)c1
EC50 (BJ [20]): 34.8 µM (inconclusive)
EC50 (BJ [21]): 2.87 µM (active)
EC50 (BJ [22]): 0.573 µM (active)
EC50 (BJ [23]): 4.38 µM (active)
EC50 [24]: 2.83 µM (active)
EC50 [5]: 10.6 µM (inconclusive)
EC50 [6]: > 120 µM (not active)
EC50 [10]: > 120 µM (not active)
